# Experimental data as given in article PMC5218480 (PLoS ONE, 2017).
# Test system: MV-4-11 cells
# Assay: Gene expression microarray analysis (Affymetrix PrimeView) and GSEA
# Format: cell-based, human
# Design: RFU PODN (11730768_x_at) / Fold change /veh PODN (11730768_x_at) / RFU LINC00158 (11744669_a_at) / Fold change /veh LINC00158 (11744669_a_at) / RFU DUSP10 (11751237_a_at) / Fold change /veh DUSP10 (11751237_a_at) / RFU ID3 (11757404_x_at) / Fold change /veh ID3 (11757404_x_at) / RFU PLEKHG5 (11737974_s_at) / Fold change /veh PLEKHG5 (11737974_s_at) / RFU LRRC4B (11730491_at) / Fold change /veh LRRC4B (11730491_at) / RFU GIMAP4 (11747438_a_at) / Fold change /veh GIMAP4 (11747438_a_at) / RFU KRT8 (11758183_x_at) / Fold change /veh KRT8 (11758183_x_at) / RFU CNN1 (11734310_a_at) / Fold change /veh CNN1 (11734310_a_at) / RFU VPS37D (11726825_at) / Fold change /veh VPS37D (11726825_at) / RFU C10orf10 (11716522_x_at) / Fold change /veh C10orf10 (11716522_x_at) / RFU KIR2DL2 /// KIR2DL4 /// KIR2DL5A /// KIR2DL5B /// KIR2DS1 /// KIR2DS2 /// KIR2DS3 /// KIR2DS4 /// KIR3DL3 /// KIR3DL3 /// KIR3DS1 (11738374_at) / Fold change /veh KIR2DL2 /// KIR2DL4 /// KIR2DL5A /// KIR2DL5B /// KIR2DS1 /// KIR2DS2 /// KIR2DS3 /// KIR2DS4 /// KIR3DL3 /// KIR3DL3 /// KIR3DS1 (11738374_at) / RFU C1QL1 (11718748_at) / Fold change /veh C1QL1 (11718748_at) / RFU TMPRSS4 (11747572_a_at) / Fold change /veh TMPRSS4 (11747572_a_at) / RFU HAMP (11756126_x_at) / Fold change /veh HAMP (11756126_x_at) / RFU RNFT2 (11725882_a_at) / Fold change /veh RNFT2 (11725882_a_at) / RFU NR4A2 (11747474_a_at) / Fold change /veh NR4A2 (11747474_a_at) / RFU ABCC12 (11746883_a_at) / Fold change /veh ABCC12 (11746883_a_at) / RFU TMEM136 (11760407_x_at) / Fold change /veh TMEM136 (11760407_x_at) / RFU CLDN22 /// WWC2 (11732394_at) / Fold change /veh CLDN22 /// WWC2 (11732394_at) / RFU HLA-DPB1 (11760878_x_at) / Fold change /veh HLA-DPB1 (11760878_x_at) / RFU SPINT1 (11716480_a_at) / Fold change /veh SPINT1 (11716480_a_at) / RFU GAP43 (11754022_s_at) / Fold change /veh GAP43 (11754022_s_at) / RFU A4GNT (11735810_at) / Fold change /veh A4GNT (11735810_at) / RFU PRB3 (11715151_x_at) / Fold change /veh PRB3 (11715151_x_at) / RFU TUBB4B (11761932_at) / Fold change /veh TUBB4B (11761932_at) / RFU CAPN14 (11732068_a_at) / Fold change /veh CAPN14 (11732068_a_at) / RFU TMCC2 (11721928_a_at) / Fold change /veh TMCC2 (11721928_a_at) / RFU IRGQ (11745062_a_at) / Fold change /veh IRGQ (11745062_a_at) / RFU FAM174B (11720279_a_at) / Fold change /veh FAM174B (11720279_a_at) / RFU TMPRSS4 (11748680_a_at) / Fold change /veh TMPRSS4 (11748680_a_at) / RFU FAM212B (11763350_a_at) / Fold change /veh FAM212B (11763350_a_at) / RFU PLEKHG5 (11743358_a_at) / Fold change /veh PLEKHG5 (11743358_a_at) / RFU ZSCAN30 (11745921_a_at) / Fold change /veh ZSCAN30 (11745921_a_at) / RFU CMKLR1 (11741424_a_at) / Fold change /veh CMKLR1 (11741424_a_at) / RFU LOC101060620 /// MAPK8IP1 (11723275_at) / Fold change /veh LOC101060620 /// MAPK8IP1 (11723275_at) / RFU SPTSSB (11747773_x_at) / Fold change /veh SPTSSB (11747773_x_at) / RFU PRSS12 (11739890_at) / Fold change /veh PRSS12 (11739890_at) / RFU BIN1 (11741810_x_at) / Fold change /veh BIN1 (11741810_x_at) / RFU WNT11 (11732464_a_at) / Fold change /veh WNT11 (11732464_a_at) / RFU C10orf10 (11716521_a_at) / Fold change /veh C10orf10 (11716521_a_at) / RFU C5orf56 (11738089_at) / Fold change /veh C5orf56 (11738089_at) / RFU CYB561 (11721691_x_at) / Fold change /veh CYB561 (11721691_x_at) / RFU ANKRD19P (11752326_a_at) / Fold change /veh ANKRD19P (11752326_a_at) / RFU OR2T12 /// OR2T33 /// OR2T8 (11738714_s_at) / Fold change /veh OR2T12 /// OR2T33 /// OR2T8 (11738714_s_at) / RFU VCAN (11748164_a_at) / Fold change /veh VCAN (11748164_a_at) / RFU JSRP1 (11732532_at) / Fold change /veh JSRP1 (11732532_at) / RFU KRTAP10-11 (11738290_x_at) / Fold change /veh KRTAP10-11 (11738290_x_at) / RFU MYO3A (11730013_a_at) / Fold change /veh MYO3A (11730013_a_at) / RFU EBF3 (11725865_a_at) / Fold change /veh EBF3 (11725865_a_at) / RFU CAMK2N1 (11719241_x_at) / Fold change /veh CAMK2N1 (11719241_x_at) / RFU C5orf56 (11738088_a_at) / Fold change /veh C5orf56 (11738088_a_at) / RFU OLFML3 (11715873_a_at) / Fold change /veh OLFML3 (11715873_a_at) / RFU LOC100653217 /// NTM (11731650_a_at) / Fold change /veh LOC100653217 /// NTM (11731650_a_at) / RFU MAPK11 (11762145_a_at) / Fold change /veh MAPK11 (11762145_a_at) / RFU FIZ1 (11724087_x_at) / Fold change /veh FIZ1 (11724087_x_at) / RFU OASL (11726364_x_at) / Fold change /veh OASL (11726364_x_at) / RFU SOX15 (11748057_x_at) / Fold change /veh SOX15 (11748057_x_at) / RFU CD79A (11719716_a_at) / Fold change /veh CD79A (11719716_a_at) / RFU HIST1H1D (11736915_at) / Fold change /veh HIST1H1D (11736915_at) / RFU CASKIN2 (11723855_a_at) / Fold change /veh CASKIN2 (11723855_a_at) / RFU LOC730098 (11760151_x_at) / Fold change /veh LOC730098 (11760151_x_at) / RFU OR4N2 (11742367_at) / Fold change /veh OR4N2 (11742367_at) / RFU PRRT2 (11749266_a_at) / Fold change /veh PRRT2 (11749266_a_at) / RFU SNX32 (11753110_a_at) / Fold change /veh SNX32 (11753110_a_at) / RFU CDHR5 (11726645_a_at) / Fold change /veh CDHR5 (11726645_a_at) / RFU RCAN1 (11760418_a_at) / Fold change /veh RCAN1 (11760418_a_at) / RFU FAM167A (11723789_a_at) / Fold change /veh FAM167A (11723789_a_at) / RFU FAM26E (11764081_at) / Fold change /veh FAM26E (11764081_at) / RFU ISYNA1 (11749810_s_at) / Fold change /veh ISYNA1 (11749810_s_at) / RFU ACY1 (11761880_at) / Fold change /veh ACY1 (11761880_at) / RFU 11764098_at / Fold change /veh 11764098_at / RFU SAMD14 (11745864_x_at) / Fold change /veh SAMD14 (11745864_x_at) / RFU NPB (11741838_a_at) / Fold change /veh NPB (11741838_a_at) / RFU TMPRSS6 (11731388_a_at) / Fold change /veh TMPRSS6 (11731388_a_at) / RFU KRTAP10-2 (11738614_at) / Fold change /veh KRTAP10-2 (11738614_at) / RFU ARHGAP8 /// PRR5-ARHGAP8 (11727945_x_at) / Fold change /veh ARHGAP8 /// PRR5-ARHGAP8 (11727945_x_at) / RFU KRTAP5-7 /// NADSYN1 (11734609_at) / Fold change /veh KRTAP5-7 /// NADSYN1 (11734609_at) / RFU RASL12 (11751679_a_at) / Fold change /veh RASL12 (11751679_a_at) / RFU CDKN2B (11736163_a_at) / Fold change /veh CDKN2B (11736163_a_at) / RFU PRF1 (11729649_at) / Fold change /veh PRF1 (11729649_at) / RFU, ZNF638 /// ZNF638-IT1 / Fold change vs veh, ZNF638 /// ZNF638-IT1 / RFU, PANK3 / Fold change vs veh, PANK3 / RFU, SH3YL1 / Fold change vs veh, SH3YL1 / RFU, ZEB2 / Fold change vs veh, ZEB2 / RFU, NRIP1 / Fold change vs veh, NRIP1 / RFU, PTTG1IP / Fold change vs veh, PTTG1IP / RFU, CAPN2 / Fold change vs veh, CAPN2 / RFU, MED14 / Fold change vs veh, MED14 / RFU, SNORA58 / Fold change vs veh, SNORA58 / RFU, C1orf63 / Fold change vs veh, C1orf63 / RFU, LRRFIP1 / Fold change vs veh, LRRFIP1 / RFU, NDUFAF7 / Fold change vs veh, NDUFAF7 / RFU, SLC12A2 / Fold change vs veh, SLC12A2 / RFU, IBTK / Fold change vs veh, IBTK / RFU, ESF1 / Fold change vs veh, ESF1 / Fold change vs veh, TMEM50B / RFU, TAOK1 / Fold change vs veh, TAOK1 / RFU, ACBD3 / Fold change vs veh, ACBD3 / RFU, TMA16 / Fold change vs veh, TMA16 / RFU, RWDD3 / Fold change vs veh, RWDD3 / RFU, BCAT1 / Fold change vs veh, BCAT1 / RFU, EDEM3 / Fold change vs veh, EDEM3 / RFU, TMEM33 / Fold change vs veh, TMEM33 / RFU, WDR75 / Fold change vs veh, WDR75 / RFU, AHCTF1 / Fold change vs veh, AHCTF1 / RFU, TFRC / Fold change vs veh, TFRC / RFU, ZDHHC17 / Fold change vs veh, ZDHHC17 / RFU, NOM1 / Fold change vs veh, NOM1 / RFU, ARL8B / Fold change vs veh, ARL8B / RFU, ZBTB11 / Fold change vs veh, ZBTB11 / RFU, TAMM41 / Fold change vs veh, TAMM41 / RFU, KIAA1704 /// LOC100996395 / Fold change vs veh, KIAA1704 /// LOC100996395 / RFU, ING1 / Fold change vs veh, ING1 / RFU, TRMT61B / Fold change vs veh, TRMT61B / RFU, FUBP3 / Fold change vs veh, FUBP3 / RFU, TP53 / Fold change vs veh, TP53 / RFU, TNKS2 / Fold change vs veh, TNKS2 / RFU, ZFP14 / Fold change vs veh, ZFP14 / RFU, ACTR2 / Fold change vs veh, ACTR2 / RFU, PPP3R1 / Fold change vs veh, PPP3R1 / RFU, PIK3R1 / Fold change vs veh, PIK3R1 / RFU, HNRNPA1 / Fold change vs veh, HNRNPA1 / RFU, RNF170 / Fold change vs veh, RNF170 / RFU, ZNF28 / Fold change vs veh, ZNF28 / RFU, RNGTT / Fold change vs veh, RNGTT / RFU, OGT / Fold change vs veh, OGT / RFU, BRD1 / Fold change vs veh, BRD1 / RFU, MARS / Fold change vs veh, MARS / RFU, ZNF655 / Fold change vs veh, ZNF655 / RFU, FAHD1 / Fold change vs veh, FAHD1 / RFU, BDP1 / Fold change vs veh, BDP1 / RFU, LRRCC1 / Fold change vs veh, LRRCC1 / RFU, ARID1A / Fold change vs veh, ARID1A / RFU, ZNF146 / Fold change vs veh, ZNF146 / RFU, ZNF330 / Fold change vs veh, ZNF330 / RFU, GPN3 / Fold change vs veh, GPN3 / RFU, C9orf123 / Fold change vs veh, C9orf123 / RFU, N4BP2L2 / Fold change vs veh, N4BP2L2 / RFU, ARFIP1 / Fold change vs veh, ARFIP1 / RFU, FAM179B / Fold change vs veh, FAM179B / RFU, BCL10 / Fold change vs veh, BCL10 / RFU, UHRF1BP1L / Fold change vs veh, UHRF1BP1L / RFU, BET1 / Fold change vs veh, BET1 / RFU, CNOT2 / Fold change vs veh, CNOT2 / RFU, ZNF268 / Fold change vs veh, ZNF268 / Fold change vs veh, ZNF507 / RFU, DGCR2 / Fold change vs veh, DGCR2 / RFU, WDSUB1 / Fold change vs veh, WDSUB1 / Fold change vs veh, HSP90B1 /// MIR3652 / RFU, ADSS / Fold change vs veh, ADSS / RFU, GK / Fold change vs veh, GK / RFU, ZNF148 / Fold change vs veh, ZNF148 / RFU, TAF9 / Fold change vs veh, TAF9 / RFU, SLC1A5 / Fold change vs veh, SLC1A5 / RFU, SLMO2 / Fold change vs veh, SLMO2 / RFU, ABCC4 / Fold change vs veh, ABCC4 / RFU, LOC101060439 /// RAP1B / Fold change vs veh, LOC101060439 /// RAP1B / RFU, RFX7 / Fold change vs veh, RFX7 / RFU, GTPBP10 / Fold change vs veh, GTPBP10 / RFU, CNEP1R1 / Fold change vs veh, CNEP1R1 / RFU, BIVM-ERCC5 /// ERCC5 / Fold change vs veh, BIVM-ERCC5 /// ERCC5 / RFU, ILF3 / Fold change vs veh, ILF3 / RFU 11762660_at / Fold change /veh 11762660_at / RFU VCAN (11757783_s_at) / Fold change /veh VCAN (11757783_s_at) / RFU DDX43 (11728927_at) / Fold change /veh DDX43 (11728927_at) / RFU KRT8 (11758188_x_at) / Fold change /veh KRT8 (11758188_x_at) / RFU NKD1 (11759106_at) / Fold change /veh NKD1 (11759106_at) / RFU SRD5A1 (11742802_a_at) / Fold change /veh SRD5A1 (11742802_a_at) / RFU TPSAB1 /// TPSB2 (11721975_s_at) / Fold change /veh TPSAB1 /// TPSB2 (11721975_s_at) / RFU GSTM3 (11746129_a_at) / Fold change /veh GSTM3 (11746129_a_at) / RFU IL23R (11737362_x_at) / Fold change /veh IL23R (11737362_x_at) / RFU TMEM51 (11727254_a_at) / Fold change /veh TMEM51 (11727254_a_at) / RFU PIWIL2 (11732686_x_at) / Fold change /veh PIWIL2 (11732686_x_at) / RFU ORM1 (11744905_x_at) / Fold change /veh ORM1 (11744905_x_at) / RFU CCDC152 (11743942_at) / Fold change /veh CCDC152 (11743942_at) / RFU ECM1 (11717891_a_at) / Fold change /veh ECM1 (11717891_a_at) / RFU IL23R (11748794_a_at) / Fold change /veh IL23R (11748794_a_at) / RFU TNFAIP8L3 (11732012_x_at) / Fold change /veh TNFAIP8L3 (11732012_x_at) / RFU MBOAT4 (11741988_at) / Fold change /veh MBOAT4 (11741988_at) / RFU 11764193_at / Fold change /veh 11764193_at / RFU TMEM53 (11763286_at) / Fold change /veh TMEM53 (11763286_at) / RFU MAGEB2 (11727129_at) / Fold change /veh MAGEB2 (11727129_at) / RFU TMEM200A (11744735_a_at) / Fold change /veh TMEM200A (11744735_a_at) / RFU CCDC152 (11751479_a_at) / Fold change /veh CCDC152 (11751479_a_at) / RFU FAM211A (11726209_a_at) / Fold change /veh FAM211A (11726209_a_at) / RFU RGS16 (11746705_a_at) / Fold change /veh RGS16 (11746705_a_at) / RFU VCAN (11755009_s_at) / Fold change /veh VCAN (11755009_s_at) / RFU RHOB (11743442_s_at) / Fold change /veh RHOB (11743442_s_at) / RFU RGS16 (11720943_a_at) / Fold change /veh RGS16 (11720943_a_at) / RFU RGS16 (11720944_at) / Fold change /veh RGS16 (11720944_at) / RFU, VPS4B / Fold change vs veh, VPS4B / RFU, CREB1 / Fold change vs veh, CREB1 / RFU, DNAJC13 / Fold change vs veh, DNAJC13 / RFU, GNAQ / Fold change vs veh, GNAQ / RFU, CDK5R1 / Fold change vs veh, CDK5R1 / RFU, ZRANB3 / Fold change vs veh, ZRANB3 / RFU, CUL4A / Fold change vs veh, CUL4A / RFU, CCNY / Fold change vs veh, CCNY / RFU, UFL1 / Fold change vs veh, UFL1 / RFU, COG3 / Fold change vs veh, COG3 / RFU, DIAPH2 / Fold change vs veh, DIAPH2 / RFU, SKA2 / Fold change vs veh, SKA2 / RFU, AFF3 / Fold change vs veh, AFF3 / RFU, LMF1 / Fold change vs veh, LMF1 / RFU, IPO11 / Fold change vs veh, IPO11 / RFU, DFFB / Fold change vs veh, DFFB / RFU, FOXP1 / Fold change vs veh, FOXP1 / RFU, CARD8 / Fold change vs veh, CARD8 / RFU, STRN3 / Fold change vs veh, STRN3 / RFU, ADK / Fold change vs veh, ADK / RFU, RASSF2 / Fold change vs veh, RASSF2 / RFU, WIPF1 / Fold change vs veh, WIPF1 / RFU, LARP1B / Fold change vs veh, LARP1B / RFU, RASA1 / Fold change vs veh, RASA1 / RFU, RB1 / Fold change vs veh, RB1 / RFU, PPFIA1 / Fold change vs veh, PPFIA1 / RFU, MAT2A / Fold change vs veh, MAT2A / RFU, CCT5 / Fold change vs veh, CCT5 / RFU, WDR92 / Fold change vs veh, WDR92 / RFU, CUX1 / Fold change vs veh, CUX1 / RFU, TTC7A / Fold change vs veh, TTC7A / RFU, TMEM135 / Fold change vs veh, TMEM135 / RFU, DEPTOR / Fold change vs veh, DEPTOR / RFU, CPM / Fold change vs veh, CPM / RFU, DNAJB6 / Fold change vs veh, DNAJB6 / RFU, CACNA2D3 / Fold change vs veh, CACNA2D3 / RFU, DTX4 / Fold change vs veh, DTX4 / RFU, TFCP2 / Fold change vs veh, TFCP2 / RFU, GMCL1 /// GMCL1P1 / Fold change vs veh, GMCL1 /// GMCL1P1 / RFU, AEBP2 / Fold change vs veh, AEBP2 / RFU, SNHG1 /// SNORD22 /// SNORD25 /// SNORD26 /// SNORD27 /// SNORD28 /// SNORD29 /// SNORD31 / Fold change vs veh, SNHG1 /// SNORD22 /// SNORD25 /// SNORD26 /// SNORD27 /// SNORD28 /// SNORD29 /// SNORD31 / Fold change (Aza/veh), C12orf56 (ProbeSet 11735607_a_at) / Fold change (ACY-1035/veh), C12orf56 (ProbeSet 11735607_a_at) / Fold change (Aza/veh), FGFR1OP (ProbeSet 11751329_s_at) / Fold change (ACY-1035/veh), FGFR1OP (ProbeSet 11751329_s_at) / Fold change (Aza/veh), VPS36 (ProbeSet 11739960_a_at) / Fold change (ACY-1035/veh), VPS36 (ProbeSet 11739960_a_at) / RFU SYPL1 (11715823_x_at) / Fold change /veh SYPL1 (11715823_x_at) / RFU IGFBP7 (11715501_s_at) / Fold change /veh IGFBP7 (11715501_s_at) / RFU REEP3 (11722064_at) / Fold change /veh REEP3 (11722064_at) / RFU IGLL1 (11728026_x_at) / Fold change /veh IGLL1 (11728026_x_at): dose or concentration left out as unconfirmed
# Settings: MV-4-11 cells, 48 hours
compound,measurement,value
Nc1ncn([C@@H]2O[C@H](CO)[C@@H](O)[C@H]2O)c(=O)n1 [azacitidine],RFU TMPRSS4 (11748680_a_at),47.70 RFU
